Measurements published in paper PMC4137035 (Bioorganic & medicinal chemistry letters, 2014).
≈ marks a conversion by molar mass, not a printed value.

Experiments:
[1] = test system: wild-type HIV-1 (IIIB); type: cell-based; conditions: selective index, CC50 vs EC50 IIIB
[2] = Aqueous solubility measured by HPLC; type: physicochemical
[3] = aqueous medium at pH 7.4 (buffer not named), pH 7.4

Structure (SMILES)	SI [1]	solubility [2, 3]	solubility ([2]; aqueous medium at pH 2.0 (buffer not named), pH 2)
Cc1cc(C#N)cc(C)c1Oc1cc(Nc2ccc(C#N)cc2)c(N)cc1CO [7a]	114,019	< 1 µg/mL	
Cc1cc(C#N)cc(C)c1Oc1cc(Nc2ccc(C#N)cc2)c(N)cc1CNC1CC1 [7c]	1,142		285 µg/mL (≈ 673 µM)
Cc1cc(C#N)cc(C)c1Oc1cc(Nc2ccc(C#N)cc2)c(N)cc1CNCCCO [7d]	2,475		
COCc1cc(N)c(Nc2ccc(C#N)cc2)cc1Oc1c(C)cc(C#N)cc1C [7g]		< 1 µg/mL	
CC(=O)OCc1cc(N)c(Nc2ccc(C#N)cc2)cc1Oc1c(C)cc(C#N)cc1C [7h]		< 1 µg/mL	
COCc1cc(N)c(Nc2ccc(C#N)cc2)cc1Oc1c(C)cc(/C=C/C#N)cc1C [11a]	8,763	< 1 µg/mL	
CC(=O)OCc1cc(N)c(Nc2ccc(C#N)cc2)cc1Oc1c(C)cc(/C=C/C#N)cc1C [11b]	117,439	< 1 µg/mL	
COCc1cc(N)c(Nc2ccc(C#N)cc2)cc1Oc1c(C)cc(CCC#N)cc1C [12a]	>61,538	< 1 µg/mL	
CC(=O)OCc1cc(N)c(Nc2ccc(C#N)cc2)cc1Oc1c(C)cc(CCC#N)cc1C [12b]	46,667	< 1 µg/mL	
